Data: patent US9150482B2 (Development Center for Biotechnology, priority 2012, dated 2015)
Read-outs that look alike come from different tables or passages of the source. Marks after values point to notes of the source that are not given here.

Legend:
[1] = test system: normal mice; test: Intraperitoneal glucose tolerance test (IPGTT) in normal mice; assay type: in vivo, C57BL/6J mice; details: for hypoglycemic effects: oral, normal mice IPGTT; for Blood glucose concentration: mean±SEM
Protocol: In this example, in vivo IPGTT is used to validate the blood glucose lowering activity of compound 1 (purity 70%). Twenty-four (24) six weeks old C57BL/6J mice are fed normal diets in an environment of 12/12 light-dark cycles and a constant temperature controlled at 24±2° C. with an unlimited supply of water and food. The mice are divided into four groups of six each, including a control group and three compound 1 (purity 70%) groups. The three compound 1 groups are respectively given orally compound 1 at dosages of 40 mg/Kg, 60 mg/Kg, and 80 mg/Kg. Mice fasted overnight are allowed to eat for 1 hour. After feeding, wait for another hour before giving the test drugs. Thirty (30) minutes after drug administration, glucose at a dose of 1.5 g/kg body weigh is injected intraperitoneally. Blood glucose levels are measured before the glucose injection (0 minutes), as well as at 30, 60 and 90 minutes after the glucose injection, to observe the blood glucose level change curves.
As shown in FIG. 5 and summarized in the Table below, data are expressed as mean±standard error (SEM). P values are calculated using the t test in the Sigma statistical software, wherein p<0.05 is considered significant and marked as *; p<0.01 is considered highly significant and is marked as **; and p≦0.001 is considered extremely significant and marked as ***.

[2] = target: T1, GLP-1 receptor (Homo sapiens, UniProt P43220); test: Receptor arrestin translocation assay (GLP-1 potentiator activity, U2OS cells transfected with GLP-1 receptor gene); assay type: cell-based
T1 construct: expressed in transfected cells; host or cells: U2OS (human bone osteosarcoma)
T1 sequence (P43220 24-463, species assumed): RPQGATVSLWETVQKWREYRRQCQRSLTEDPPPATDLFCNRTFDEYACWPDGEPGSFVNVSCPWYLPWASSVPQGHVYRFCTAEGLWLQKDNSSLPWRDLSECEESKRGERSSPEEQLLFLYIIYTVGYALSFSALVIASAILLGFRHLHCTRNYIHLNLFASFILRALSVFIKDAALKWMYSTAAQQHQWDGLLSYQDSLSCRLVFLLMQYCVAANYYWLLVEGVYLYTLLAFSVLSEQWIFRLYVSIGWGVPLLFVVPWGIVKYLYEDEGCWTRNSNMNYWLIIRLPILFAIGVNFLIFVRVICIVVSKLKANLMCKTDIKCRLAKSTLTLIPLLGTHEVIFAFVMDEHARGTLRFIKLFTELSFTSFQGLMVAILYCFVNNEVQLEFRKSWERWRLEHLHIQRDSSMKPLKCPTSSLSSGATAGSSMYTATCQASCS
Protocol: For example, these cells may be plated as monolayer on a test plate (e.g., a 384-well plate). The cells, for example, may be plated at a density of 4000 cells per well. The test sample concentrations may be 0.2-0.000002 mg/ml. The test volumes may be 25 microliter, and the test time may be 1 hr.
GLP-1 receptors are G-protein coupled receptors with seven transmembrane domains. After activation by hormones or neural stimulants, many G-protein coupled cell surface receptors will internalize from the cell surface to the cytoplasm in endocytosis responses. […] This process may be used to assay the test samples. The extents of receptor endocytosis are closely related to the concentrations of the test samples—the higher the sample concentrations, the stronger the endocytosis responses. Because the densities of cell surface receptors are fixed, when the sample concentrations reach a high number, the extents of endocytosis responses would not increase with increasing sample concentrations, i.e., the response reaches saturation. Based on the concentrations and saturation measurements, one can determine the receptor binding affinities of the test samples.
After activation of G-protein coupled receptors, the receptors are typically desensitized or inactivated. Arrestin is involved in such desensitization or inactivation processes. That is, arrestin will be recruited to the GPCR to desensitize or inactivate the receptors. Therefore, monitoring the translocation of GFP-tagged arrestin from the cytosol to the activated GPCRs on the plasma membrane would allow one to measure the binding of test compounds to the receptor target. (Hudson et al., “High-content screening of know G protein-coupled receptors by arrestin translocation,” Methods Enzymol., 414: 63-78 (2006)).
Using this assay, the following test samples have been assessed: (a) compound 1 (MW 318), (b) compound 2 (MW 318), (c) compound 3 (MW 334), (d) compound 5 (MW 304), (e) compound 6 (MW 376). […] When the sample concentrations reach certain high concentrations, the extents of endocytosis responses will not further increase with increasing sample concentrations because the responses have reached saturation.
Based on the binding curves and saturation measurements as a function of test sample concentrations, the receptor affinities of the test samples can be determined.

[3] = test system: RINm5F cells; test: Insulin secretion tests in rat pancreatic beta cells RINm5F; assay type: cell-based; details: 2 hours, FIG. 4; for insulin secretion with exendin-4: 16 mM glucose, ELISA; for effect on insulin secretion in the absence of exendin-4: no exendin-4, 16 mM glucose
Protocol: Rat pancreatic beta cell line RINm5F was purchased from the Food Industry Research and Development Institute (Hsinchu, Taiwan), No. BCRC 60410; source: ATCC CRL-11 605. The cells are cultured in 10% FBS RPMI-1640 medium, in a constant temperature CO2 incubator, under 5% CO2, 37° C. and 95% humidity, for subsequent experiments.
To each 96-well plate, add the RINm5F cells (8×10^5 cells/well) and culture the cells for 2 days before the experiments. Before testing, remove the culture medium. To each well in the 96-well plates, add 100 ul of KRPH buffer (136 mM NaCl, 4.8 mM KCl, 1.2 mM CaCl2, 1.2 mM KH2PO4, 1.2 mM MgSO4, 5 mM NaHCO3, 10 mM HEPES), 2.8 mM D-glucose, 0.2% bovine serum albumin, pH 7.4, placed in a CO2 incubator at 37° C. for 30 minutes, to allow the pancreatic islet cells to acclimate to the medium change (from RPMI 1640 to KRPH buffer). Remove the 96-well plates from the incubator. […] Incubate the cells in KRPH buffer and glucose (KRPH +0.2% BSA, 16 mM glucose) containing culture medium for 2 hours to allow for insulin secretion by the islet beta cells under glucose stimulation. The supernatants from the incubation are collected and the concentrations of insulin released in the wells are assayed using ELISA. Various insulin ELISA kits are available from commercial sources, such as Calbiotech (Spring Valley, Calif.), Crystal Chem., Inc. (Downers Grove, Ill.), and Mercodia (Uppsala, Sweden).
Two days after inoculating RINm5F cells, about 8×10^5 cells/well in 96-well plates, add the active ingredients, compounds 1, 2, and 3, from wild ginger flower 95% ethanol extracts, to the cells. […] After 2 hours, the insulin contents in the supernatants are assessed using insulin ELISA kits.

`CC1(C)CCC[C@]2(C)[C@H]3CC=C(C=O)C[C@@H](O)[C@]3(C=O)CC[C@@H]12` [Compound 1, Galanal B] was tested, and the hypoglycemic effects ([1]; 40 mg/Kg group) was 41%, the Blood glucose concentration ([1]; 40 mg/kg oral, compound 1 purity 70%, 0 minute (before glucose injection)) was 120.5 ± 3.8 mg/dL and the Blood glucose concentration ([1]; 40 mg/kg oral, purity 70%, 30 minute after glucose 1.5 g/kg i.p.) was 168.2 ± 3.0** mg/dl. For the same molecule, the Blood glucose concentration ([1]; 40 mg/kg oral, purity 70%, 60 minute after glucose) was 127.0 ± 4.4 mg/dL, the Blood glucose concentration ([1]; 40 mg/kg oral, purity 70%, 90 minute after glucose) was 117.3 ± 3.4 mg/dL and the hypoglycemic effects ([1]; 60 mg/Kg group) was 45%. For the same molecule, the Blood glucose concentration ([1]; 60 mg/kg oral, purity 70%, 0 minute (before glucose injection)) was 121.5 ± 3.7 mg/dL, the Blood glucose concentration ([1]; 60 mg/kg oral, purity 70%, 30 minute after glucose) was 169.2 ± 3.6** mg/dl and the Blood glucose concentration ([1]; 60 mg/kg oral, purity 70%, 60 minute after glucose) was 128.0 ± 4.0 mg/dL. The Blood glucose concentration ([1]; 60 mg/kg oral, purity 70%, 90 minute after glucose) was 111.3 ± 2.9* mg/dl, the hypoglycemic effects ([1]; 80 mg/Kg group) was 71% and the Blood glucose concentration ([1]; 80 mg/kg oral, purity 70%, 0 minute (before glucose injection)) was 120.8 ± 3.7 mg/dL. For the same molecule, the Blood glucose concentration ([1]; 80 mg/kg oral, purity 70%, 30 minute after glucose) was 154.0 ± 2.5*** mg/dl, the Blood glucose concentration ([1]; 80 mg/kg oral, purity 70%, 60 minute after glucose) was 120.3 ± 1.8** mg/dl and the Blood glucose concentration ([1]; 80 mg/kg oral, purity 70%, 90 minute after glucose) was 106.7 mg/dL. For the same molecule, the EC50 ([2]; GLP-1 4-8 nM constant, U2OS cells expressing GLP-1R, FIG. 3) was 6.603 µg/mL, the “insulin secretion with exendin-4” value ([3]; exendin-4 2 nM) was “stimulate more insulin secretions” and the “effect on insulin secretion in the absence of exendin-4” value (from here on “effect on insulin secretion”) [3] was “substantially abolished”.

`C=C1CCC2C(C)(C)CCC[C@]2(C)C1C1C=C(C=O)CC(O)O1` (stereo partly drawn) [Compound 2, 11-hydroxy-8(17),12(E)-labdadien-15,16-dial 11,15-hemiacetal] was tested, and the EC50 ([2]; read-out: EC50 (converted)) was 13.9 µM, the “insulin secretion with exendin-4” value ([3]; exendin-4 5 nM) was “stimulate more insulin secretions” and the “effect on insulin secretion” value [3] was “substantially abolished”.

With `C=C1CCC2C(C)(C)CCCC2(C)C1C1C=C(C=O)CC(O)OO1` (stereo not drawn) [Compound 3, Coronarin B] the EC50 ([2]; read-out: EC50 (converted)) was 0.196 µM, the “GLP-1 potentiator activity (in words)” value ([2]; summary of FIG. 3 results) was “most potent” and the “insulin secretion with exendin-4” value ([3]; exendin-4 5 nM) was “stimulate more insulin secretions”. The “effect on insulin secretion” value [3] was “substantially abolished”.

Molecule `C=C1CCC2C(C)(C)CCC[C@]2(C)[C@H]1C/C=C(/C=O)CCO` (stereo partly drawn) [Compound 5, (E)-labda-8(17),12-diene-15-ol-16-al] has an EC50 ([2]; read-out: EC50 (converted)) of 8.14 µM.

`C=C1CCC2C(C)(C)CCC[C@]2(C)[C@H]1C/C=C(/C=O)CC(OCC)OCC` (stereo partly drawn) [Compound 6, (E)-15,15-diethoxylabda-8(17),12-dien-16-al] was tested, and the EC50 ([2]; read-out: EC50 (converted)) was 11.6 µM.
